The values that follow come from patent US7189351B2, “D-tagatose as an anti-biofilm agent” (priority 2001, dated 2007).

The subject of experiment [1] is biofilm on the heart valve. The experiment can be described thus: prophylaxis against prosthetic valve endocarditis (Example 5). The experiment is classed as in vivo, human. The note with it: one patient; 10 grams with each of three daily meals, three days before until one week after surgery. The text has this:
An adult patient requires removal of their infected mitral valve and its replacement with a prosthetic valve. One of the principal hazards of such an operation is that the valve region of the heart will become infected, frequently with streptococci that form a biofilm protecting internal microorganisms from antibiotics, and also permitting such organisms to develop increasing resistance. In order to prevent the buildup of a biofilm infection, the physician places their patient on tagatose treatment for three days prior to the surgery. On each such day, the patient consumes 10 grams of D-tagatose with each of their three daily meals. The resulting D-tagatose blood level is sufficient to preclude the formation of a biofilm on the heart valve. The treatment is continued until one week after the operation and the patient is well on the road to recovery.

Experiment [2] is described as follows: prevention of stroke (Example 6). The note with it: one patient with high blood pressure; 5 grams with each of three daily meals. The class given is in vivo, human. The text has this:
A patient has gradually developed high blood pressure over the years. Their doctor places them on a blood pressure medicine when their pressure reaches 135/90 mm Hg. Despite gradual increases in dosage of the medicine, and trials of new medicines, over time their blood pressure continues to increase until reaching 145/100 mm Hg. At this point the physician fears the possibility of a stroke.

Experiment [3] deals with total bacteria and coliform. The experiment can be described thus: sterilization of food-handling machinery, wash before Clean-In-Place (Example 7). The note with it: 200 mM in sterile water run through equipment immediately prior to CIP. Here is the method:
A cheese-making plant processes raw milk into cheese. The equipment includes many tubes, tubules, pipes and other surfaces that come in direct contact with the milk. Between runs, standard “Clean-In-Place” (CIP) operations are performed in which acid and oxidants are coursed through the equipment to contact all surfaces and are then washed out with sterile water. However, the formation of microbial plaques protects the microorganisms in the interiors of the plaques, and some survive the CIP. To overcome this problem, an initial step is added to the CIP whereby a stream of 200 mM D-tagatose in sterile water is run through the equipment, contacting all surfaces, immediately prior to instituting the CIP. […] Accordingly, the D-tagatose wash is made part of the CIP.

In experiment [4] the test system is dental plaque. The experiment is described as follows: D-tagatose in foods to control dental plaque (Example 3). The class given is in vivo, human. The note with it: third monthly check-up. The text has this:
Forty subjects, half male, half female, ranging from 4 to 80 years in age, daily consume foodstuffs, such as cakes, cookies, pies, hard candy, hot and cold cereals, cold fruit drinks, iced tea, coffee and tea, that are sweetened with conventional sweeteners including sucrose and high fructose corn syrup (HFCS). After several monthly check-ups, these subjects are found to have high dental plaque indices, and many of them are diagnosed with plaque-related oral diseases. At this point, the test foodstuffs are switched such that D-tagatose is used as a one-for-one replacement for the table sugar and HFCS previously used. No other changes are made in the test regimen.

The test system of experiment [5] is Fusobacterium nucleatum PK1594/Capnocytophaga ochracea 25. The experiment is described as follows: reversal of coaggregation, visual score. The experiment is classed as cell-based. Also on record: key: *: Coaggregations were reversed by both D-galactose and D-tagatose. The note with it: pair PK1594/Capno 25; coaggregation score 1 without sugar. The method, then:
(§1) Fifteen oral isolates, including both early colonizers (Streptococcus and Actinomyces) and late colonizers (Fusobacterium, Porphyromonas, Prevotella, Veillonella, Capnocytophaga, and Actinobacillus), were tested for their ability to coaggregate with each other, followed by testing for the reversal of coaggregation by the addition of D-tagatose. Bacterial strains used were of human gingival crevice origin. The coaggregation was examined visually by a scoring system ranging from 0 for no visible coaggregation to 4 for maximum coaggregation [Cisar J. O., Kolenbrander P. E., and McIntire F. C., “Specificity of coaggregation reactions between human oral streptococci and strains of Actinomyces viscosus or Actinomyces naeslundii”, Infect. Immun., 24:742–752. 1979]. D-Tagatose, at a concentration of less than 750 mM, completely reversed the coaggregation of 17 (60%) of 28 strong coaggregating pairs (with a coaggregation score of 2 or higher) tested. […] These D-tagatose sensitive coaggregations were D-galactose reversible as well.
(§2) Pairs of various species of oral bacteria were tested for coaggregation, and for reversal of coaggregation when D-tagatose or D-galactose was administered.

Experiment [6] deals with Prevotella loescheii PK1295/Streptococcus oralis SO34. The experiment can be described thus: reversal of coaggregation, visual score. The experiment is classed as cell-based. Further details: key: *: Coaggregations were reversed by both D-galactose and D-tagatose. The method, then: as §1, §2
Experiment [7] relates to Prevotella loescheii PK1295/Streptococcus oralis C104. The experiment can be described thus: reversal of coaggregation, visual score. Further details: key: *: Coaggregations were reversed by both D-galactose and D-tagatose. The experiment is classed as cell-based. The method, then:
as §1, §2

Experiment [8] concerns staphylococcus lesion of the leg. The experiment is described as follows: D-tagatose enhancing antibiotic activity (Example 4). The class given is in vivo, human. To be noted: one patient; five grams with each of three meals daily plus oral penicillin; in the course of a week. The source says:
A patient with a staphylococcus lesion of the leg is placed on oral penicillin by their physician. […] The formation of plaque in the infected region protects the interior microorganisms from the antibiotic coursing through the bloodstream, and the plaque organisms develop increased resistance. The physician prescribes five grams of D-tagatose be taken with each of three meals daily, along with continued taking of the penicillin.

For experiment [9], the system named is coaggregating pairs of oral isolates (early and late colonizers). The experiment is described as follows: reversal of coaggregation among fifteen oral isolates (overall). The experiment is classed as cell-based, bacterial strains of human gingival crevice origin. The method, then:
as §1, §2

Experiment [10] relates to oral bacteria. To be noted: known from literature; cited from earlier work.
Setting [11] is: pair SO34/PK1295, coaggregation score 4 without sugar.
Where [12] appears, read: pair Cl04/PK1295, coaggregation score 4 without sugar.

In the case of `O=C(CO)[C@@H](O)[C@@H](O)[C@H](O)CO` [D-Tagatose], in [1], the “infection after prosthetic valve replacement” value is reported as “Infection has been avoided”. In [2], the risk of stroke entry is on record as “significantly reduced”. In experiment [3], the “total bacteria and coliform counts in cheese-making equipment” value was “reducing the total bacteria and the coliform counts to acceptable regulatory levels”. For the same compound, the plaque indices result in experiment [4] (forty subjects, D-tagatose one-for-one replacement for table sugar and HFCS in foodstuffs) is on record as “significantly lowered”. Also, in [4] (subjects who formerly exhibited disease), the plaque-related oral diseases entry was “complete or nearly complete recovery”. The “coaggregation score without sugar” value in experiment [5] was 1*. Also, the coaggregation score in experiment [6] (pair PK1295/SO34, sugar 750 mM, water score 4, scale 0 no visible to 4 maximum coaggregation) was 1; in experiment [6] (setting [11]), 4*; in experiment [7] (setting [12]), 4*; in [7] (pair PK1295/C104, sugar 750 mM, water score 4, scale 0 no visible to 4 maximum coaggregation), 2. Also, the “outcome of staphylococcus lesion” value in experiment [8] is “the lesion disappears”. Moreover, in experiment [9] (D-tagatose and D-sorbitol at somewhat higher concentrations than D-galactose), the “plaque reversibility, comparison of Table 2” value was “virtually equal to that of D-galactose”. For the same compound, in experiment [9] (concentration of less than 750 mM, 28 strong coaggregating pairs tested), the “share of strong coaggregating pairs whose coaggregation was completely reversed” value amounted to 60%. The “number of strong coaggregating pairs whose coaggregation was completely reversed” value in [9] (concentration of less than 750 mM, of 28 strong coaggregating pairs (score of 2 or higher) tested) was determined as 17. In experiment [9] (late colonizers were gram-negative anaerobes), the colonizers acted on entry is “acted on both early colonizers and late colonizers”.

Regarding `O=C[C@H](O)[C@@H](O)[C@@H](O)[C@H](O)CO` [D-Galactose], in experiment [10], the “reversal of coaggregations that would otherwise form dental plaque” value is recorded as “reverse the coaggregations of oral bacteria”. Moreover, the “coaggregation score without sugar” value in experiment [5] was 1*. Also, the coaggregation score in [6] (pair PK1295/SO34, sugar 143 mM, water score 4, scale 0 no visible to 4 maximum coaggregation) is listed as 0; in [6] (setting [11]) it was 4*; in experiment [7] (setting [12]), 4*; in experiment [7] (pair PK1295/C104, sugar 143 mM, water score 4, scale 0 no visible to 4 maximum coaggregation) it was 1. In addition, the “reversibility of the D-tagatose sensitive coaggregations” value in experiment [9] was “reversible”.
